Reference: ChEMBL document CHEMBL3585308, “Discovery and Modification of in Vivo Active Nrf2 Activators with 1,2,4-Oxadiazole Core: Hits Identification and Structure-Activity Relationship Study” (J Med Chem, 2015)

Assays:
Assay type in all cases: cell-based
[1] = biological target: T1, Nuclear factor erythroid 2-related factor 2 (Homo sapiens) (UniProt Q16236); experiment: Activation of Nrf2 in human HepG2-ARE-C8 cells assessed as upregulation of ARE level at 2 uM after 12 hrs by luciferase reporter gene assay relative to control
T1 sequence (whole entry): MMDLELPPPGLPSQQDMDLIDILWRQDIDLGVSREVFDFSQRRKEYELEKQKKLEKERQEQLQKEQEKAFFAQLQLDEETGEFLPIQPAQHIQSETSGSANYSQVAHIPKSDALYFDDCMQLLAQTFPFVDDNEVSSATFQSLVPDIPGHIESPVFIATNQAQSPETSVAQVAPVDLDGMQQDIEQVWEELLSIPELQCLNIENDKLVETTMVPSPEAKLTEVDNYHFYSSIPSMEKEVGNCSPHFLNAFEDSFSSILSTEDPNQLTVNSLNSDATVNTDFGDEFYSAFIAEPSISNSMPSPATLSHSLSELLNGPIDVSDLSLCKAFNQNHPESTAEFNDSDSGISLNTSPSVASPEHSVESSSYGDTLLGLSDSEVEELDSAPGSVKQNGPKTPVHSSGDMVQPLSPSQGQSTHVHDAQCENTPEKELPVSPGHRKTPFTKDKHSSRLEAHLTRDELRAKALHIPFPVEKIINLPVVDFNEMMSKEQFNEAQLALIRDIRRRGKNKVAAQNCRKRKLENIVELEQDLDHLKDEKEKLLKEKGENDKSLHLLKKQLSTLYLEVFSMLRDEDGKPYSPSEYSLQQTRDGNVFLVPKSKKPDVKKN

[2] = biological target: T1, Nuclear factor erythroid 2-related factor 2 (Homo sapiens); experiment: Activation of Nrf2 in human HepG2-ARE-C8 cells assessed as upregulation of ARE level at 0.2 uM after 12 hrs by luciferase reporter gene assay relative to control
[3] = biological target: T1, Nuclear factor erythroid 2-related factor 2 (Homo sapiens); experiment: Activation of Nrf2 in human HepG2-ARE-C8 cells assessed as upregulation of ARE level at 20 uM after 12 hrs by luciferase reporter gene assay relative to control
[4] = biological target: T1, Nuclear factor erythroid 2-related factor 2 (Homo sapiens); experiment: Activation of Nrf2 in human HepG2-ARE-C8 cells assessed as upregulation of ARE level at 160 uM after 12 hrs by luciferase reporter gene assay relative to control
[5] = biological target: T1, Nuclear factor erythroid 2-related factor 2 (Homo sapiens); experiment: Activation of Nrf2 in human HepG2-ARE-C8 cells assessed as upregulation of ARE level at 40 uM after 12 hrs by luciferase reporter gene assay relative to control
HCT-116 = experiment: Cytotoxicity against human HCT116 cells assessed as reduction of cell proliferation at 80 uM after 24 hrs by MTT assay; settings: hct-116, 24 h
[6] = biological target: T1, Nuclear factor erythroid 2-related factor 2 (Homo sapiens); experiment: Activation of Nrf2 in human HepG2-ARE-C8 cells assessed as upregulation of ARE level at 80 uM after 12 hrs by luciferase reporter gene assay relative to control
[7] = biological target: T1, Nuclear factor erythroid 2-related factor 2 (Homo sapiens); experiment: Activation of Nrf2 in human HepG2-ARE-C8 cells assessed as upregulation of ARE level at 0.02 uM after 12 hrs by luciferase reporter gene assay relative to control

| Compound | fold change (FC) [1] | fold change (FC) [2] | fold change (FC) [3] | fold change (FC) [4] | fold change (FC) [5] | Activity (HCT-116) | fold change (FC) [6] | fold change (FC) [7] |
| --- | --- | --- | --- | --- | --- | --- | --- | --- |
| FC(F)(F)c1cccc(-c2nc(-c3ccc4nc[nH]c4c3)no2)c1 | 13.9 | 8.04 | 10.5 | 2.94 | 5.65 | Non-toxic | 3.45 | 2.56 |
| COc1cccc(-c2nc(-c3ccc4nc[nH]c4c3)no2)c1 | 3.16 | 1.95 | 12.4 | 8.38 | 14.4 | Non-toxic | 12.4 | 1.79 |
| c1cc(-c2nc(-c3ccc4nc[nH]c4c3)no2)ccn1 | 4.27 | 2.54 | 4.36 | 10.6 | 4.95 | Non-toxic | 5.99 | 1.91 |
| CCCc1ccc(-c2nc(-c3ccc4nc[nH]c4c3)no2)cc1 | 2.25 | 1.73 | 6.07 | 10 | 6.16 | Non-toxic | 7.79 | 1.48 |
| Oc1ccc(-c2nc(-c3ccc4nc[nH]c4c3)no2)cc1 | 2.19 | 1.65 | 6.23 | 7.35 | 8.67 | Non-toxic | 8.81 | 1.56 |
| c1cc2ccc(-c3nc(-c4ccc5nc[nH]c5c4)no3)cc2[nH]1 | 1.77 | 1.5 | 10.2 | 8.88 | 11 | Non-toxic | 11.6 | 1.22 |
| Cn1cnc2ccc(-c3noc(-c4ccc5ccccc5c4)n3)cc21 | 1.43 | 1.4 | 1.39 | 2.44 | 1.45 | Non-toxic | 1.37 | 1.44 |
| Cc1ccc(-c2nc(-c3ccc4nc[nH]c4c3)no2)cc1 | 7.78 | 3.29 | 20.6 | 9.22 | 16.6 | Non-toxic | 12.7 | 2.11 |
| FC(F)(F)c1ccc(-c2nc(-c3ccc4nc[nH]c4c3)no2)cc1 | 6.91 | 2.85 | 17.7 | 1.13 | 21.6 | Non-toxic | 6.56 | 1.35 |
| CCc1ccc(-c2nc(-c3ccc4nc[nH]c4c3)no2)cc1 | 2.56 | 1.75 | 9.34 | 3.69 | 5.88 | Non-toxic | 4.82 | 1.37 |
| N#Cc1ccccc1-c1nc(-c2ccc3nc[nH]c3c2)no1 | 2.46 | 1.48 | 1.33 | 2.09 | 1.32 | Non-toxic | 1.39 | 1.36 |
| COc1cc(-c2nc(-c3ccc4nc[nH]c4c3)no2)cc(OC)c1OC | 2.41 | 2.24 | 3.23 | 22.5 | 3.24 | Non-toxic | 13.9 | 1.31 |
| COc1ccc(-c2nc(-c3ccc4nc[nH]c4c3)no2)c(OC)c1 | 2.84 | 1.59 | 8.57 | 1.46 | 11.6 | Non-toxic | 4.35 | 1.25 |
| c1ccc2nc(-c3nc(-c4ccc5nc[nH]c5c4)no3)ccc2c1 | 4.35 | 2.04 | 20.5 | 7.09 | 16.9 | Non-toxic | 6.61 | 1.61 |
| Cn1cnc2ccc(-c3noc(-c4ccccc4)n3)cc21 | 18.2 | 3.41 | 17.4 | 1.75 | 8.41 | Non-toxic | 3.33 | 2.03 |
| c1ccc(-c2nc(-c3ccc4nc[nH]c4c3)no2)nc1 | 5.09 | 3.42 | 9.49 | 2.55 | 7.51 | Non-toxic | 2.65 | 1.06 |
| COC(=O)/C=C/C(=O)OC | 1.1 | 1 | 1.65 | – | 2.97 | – | – | 0.82 |
| Oc1cccc(-c2nc(-c3ccc4nc[nH]c4c3)no2)c1 | 2.44 | 1.71 | 8.62 | 3.93 | 4.18 | Non-toxic | 4.05 | 1.68 |
| CCCCc1ccc(-c2nc(-c3ccc4nc[nH]c4c3)no2)cc1 | 10.9 | 2.08 | 30.8 | 12 | 37.6 | Non-toxic | 14.8 | 1.55 |
| c1ccc(-c2ccc(-c3nc(-c4ccc5nc[nH]c5c4)no3)cc2)cc1 | 1.52 | 1.54 | 2 | 11 | 10.7 | Non-toxic | 15 | 1.18 |
| N#Cc1ccc(-c2nc(-c3ccc4nc[nH]c4c3)no2)cc1 | 1.35 | 1.25 | 8.12 | 12.7 | 11.9 | Non-toxic | 10 | 1.22 |
| Cc1ccccc1-c1nc(-c2ccc3nc[nH]c3c2)no1 | 3.52 | 1.59 | 10.9 | 7.85 | 10.8 | Non-toxic | 18.5 | 1.4 |
| COc1ccccc1-c1nc(-c2ccc3nc[nH]c3c2)no1 | 1.62 | 1.39 | 5.96 | 5.85 | 10.7 | Non-toxic | 8.46 | 1.24 |
| Cc1cccc(-c2nc(-c3ccc4nc[nH]c4c3)no2)c1 | 4.84 | 1.94 | 14.2 | 8.99 | 10.4 | Non-toxic | 17.3 | 1.44 |
| COc1ccc(OC)c(-c2nc(-c3ccc4nc[nH]c4c3)no2)c1 | 3.21 | 2.96 | 4.48 | 5.2 | 4.24 | Non-toxic | 3.7 | 1.7 |
| Oc1ccccc1-c1nc(-c2ccc3nc[nH]c3c2)no1 | 1.53 | 1.54 | 2.67 | 1.17 | 2.75 | Non-toxic | 1.34 | 1.72 |
| O=[N+]([O-])c1cccc(-c2nc(-c3ccc4nc[nH]c4c3)no2)c1 | 4.74 | 1.56 | 11.6 | 11.5 | 21.8 | Non-toxic | 16.5 | 1.43 |
| CC(C)(C)C1=CC(=O)C=CC1=O | 1.24 | 1.25 | 1.41 | 8.46 | 2.14 | – | 5.27 | 1.18 |
